Data as given in patent US11739098B2 (BRISTOL-MYERS SQUIBB COMPANY, priority 2017, dated 2023).

What was measured:
Assay type in all cases: cell-based
human TLR7 = target: T1, human TLR7 (Homo sapiens, UniProt Q9NYK1); assay: TLR7 inhibition reporter assay (HEK-Blue cells, SEAP reporter, gardiquimod stimulation); conditions: HEK-Blue cells overexpressing human TLR7, SEAP reporter, gardiquimod 7.5 μM
T1 construct: host or cells: HEK-Blue cells (HEK293-derived reporter line)
T1 sequence (Q9NYK1 27-1049): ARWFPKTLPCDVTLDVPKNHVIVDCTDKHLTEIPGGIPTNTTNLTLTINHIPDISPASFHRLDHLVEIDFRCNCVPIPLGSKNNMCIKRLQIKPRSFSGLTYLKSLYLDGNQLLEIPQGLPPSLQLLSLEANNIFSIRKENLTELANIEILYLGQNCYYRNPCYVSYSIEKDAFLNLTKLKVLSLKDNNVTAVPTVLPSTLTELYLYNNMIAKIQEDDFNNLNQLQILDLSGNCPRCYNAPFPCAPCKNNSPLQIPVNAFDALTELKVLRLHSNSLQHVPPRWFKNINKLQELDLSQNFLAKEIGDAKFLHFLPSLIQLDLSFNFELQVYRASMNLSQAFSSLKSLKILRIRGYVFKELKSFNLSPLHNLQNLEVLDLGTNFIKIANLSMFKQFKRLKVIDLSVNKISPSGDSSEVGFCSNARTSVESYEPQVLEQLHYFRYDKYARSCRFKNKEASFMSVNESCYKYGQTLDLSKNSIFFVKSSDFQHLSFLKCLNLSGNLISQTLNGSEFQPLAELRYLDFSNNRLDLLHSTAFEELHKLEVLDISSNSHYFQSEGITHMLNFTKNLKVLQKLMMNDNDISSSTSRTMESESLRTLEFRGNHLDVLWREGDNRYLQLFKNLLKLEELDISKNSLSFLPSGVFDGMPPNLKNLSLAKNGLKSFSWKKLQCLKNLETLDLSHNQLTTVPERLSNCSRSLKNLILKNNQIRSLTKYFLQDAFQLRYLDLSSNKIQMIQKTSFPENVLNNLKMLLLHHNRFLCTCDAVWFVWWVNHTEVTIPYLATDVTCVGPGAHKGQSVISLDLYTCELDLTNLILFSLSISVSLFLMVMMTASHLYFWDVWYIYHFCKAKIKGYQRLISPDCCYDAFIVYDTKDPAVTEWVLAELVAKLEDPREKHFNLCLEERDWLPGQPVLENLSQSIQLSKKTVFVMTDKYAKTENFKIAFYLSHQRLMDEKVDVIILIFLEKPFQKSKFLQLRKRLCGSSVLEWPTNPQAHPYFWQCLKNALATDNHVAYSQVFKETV
In short: (§1)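 Agonists (final): TLR7 gardiquimod 7.5 μM; TLR8 R848 15.9 μM; TLR9 ODN2006 5 nM. HEK-Blue reporter cells, 30 min RT compound pre-incubation, 0.05 nM–50 μM dose range, 22 h at 37 °C, colorimetric SEAP detection medium. % inhibition relative to agonist+DMSO and known-inhibitor wells.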

human TLR8 = target: T2, human TLR8 (Homo sapiens, UniProt Q9NR97); assay: TLR8 inhibition reporter assay (HEK-Blue cells, SEAP reporter, R848 stimulation); conditions: HEK-Blue cells overexpressing human TLR8, SEAP reporter, R848 15.9 μM
T2 construct: host or cells: HEK-Blue cells (HEK293-derived reporter line)
T2 sequence (Q9NR97 27-1041): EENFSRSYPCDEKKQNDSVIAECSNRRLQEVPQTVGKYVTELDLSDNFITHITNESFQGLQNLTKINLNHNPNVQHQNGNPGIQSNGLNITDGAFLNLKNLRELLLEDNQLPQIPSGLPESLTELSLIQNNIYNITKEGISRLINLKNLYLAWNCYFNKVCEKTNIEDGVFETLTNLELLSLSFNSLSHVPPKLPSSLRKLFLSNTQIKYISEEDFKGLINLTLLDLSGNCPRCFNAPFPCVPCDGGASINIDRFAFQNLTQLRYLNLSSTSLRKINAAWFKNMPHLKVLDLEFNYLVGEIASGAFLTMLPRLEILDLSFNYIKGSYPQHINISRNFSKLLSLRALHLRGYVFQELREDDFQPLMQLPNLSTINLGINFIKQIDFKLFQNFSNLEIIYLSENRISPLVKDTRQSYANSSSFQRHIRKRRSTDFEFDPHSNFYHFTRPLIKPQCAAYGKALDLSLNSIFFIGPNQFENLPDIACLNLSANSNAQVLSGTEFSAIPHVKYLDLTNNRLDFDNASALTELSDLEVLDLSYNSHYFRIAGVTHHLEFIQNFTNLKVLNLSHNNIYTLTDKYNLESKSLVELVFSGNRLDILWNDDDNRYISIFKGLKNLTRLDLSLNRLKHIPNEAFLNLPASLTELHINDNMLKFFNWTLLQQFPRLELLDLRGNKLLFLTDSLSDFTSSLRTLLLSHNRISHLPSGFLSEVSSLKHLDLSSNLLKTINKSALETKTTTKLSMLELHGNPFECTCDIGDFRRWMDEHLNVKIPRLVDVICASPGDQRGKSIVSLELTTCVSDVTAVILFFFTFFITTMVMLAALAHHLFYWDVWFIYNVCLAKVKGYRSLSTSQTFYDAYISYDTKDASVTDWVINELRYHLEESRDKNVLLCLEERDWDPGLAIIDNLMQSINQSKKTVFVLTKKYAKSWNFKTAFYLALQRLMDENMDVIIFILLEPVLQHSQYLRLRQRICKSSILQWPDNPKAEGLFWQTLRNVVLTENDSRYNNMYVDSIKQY
In short: as §1

human TLR9 = target: T3, human TLR9 (Homo sapiens, UniProt Q9NR96); assay: TLR9 inhibition reporter assay (HEK-Blue cells, SEAP reporter, ODN2006 stimulation); conditions: HEK-Blue cells overexpressing human TLR9, SEAP reporter, ODN2006 5 nM
T3 construct: host or cells: HEK-Blue cells (HEK293-derived reporter line)
T3 sequence (Q9NR96 26-1032): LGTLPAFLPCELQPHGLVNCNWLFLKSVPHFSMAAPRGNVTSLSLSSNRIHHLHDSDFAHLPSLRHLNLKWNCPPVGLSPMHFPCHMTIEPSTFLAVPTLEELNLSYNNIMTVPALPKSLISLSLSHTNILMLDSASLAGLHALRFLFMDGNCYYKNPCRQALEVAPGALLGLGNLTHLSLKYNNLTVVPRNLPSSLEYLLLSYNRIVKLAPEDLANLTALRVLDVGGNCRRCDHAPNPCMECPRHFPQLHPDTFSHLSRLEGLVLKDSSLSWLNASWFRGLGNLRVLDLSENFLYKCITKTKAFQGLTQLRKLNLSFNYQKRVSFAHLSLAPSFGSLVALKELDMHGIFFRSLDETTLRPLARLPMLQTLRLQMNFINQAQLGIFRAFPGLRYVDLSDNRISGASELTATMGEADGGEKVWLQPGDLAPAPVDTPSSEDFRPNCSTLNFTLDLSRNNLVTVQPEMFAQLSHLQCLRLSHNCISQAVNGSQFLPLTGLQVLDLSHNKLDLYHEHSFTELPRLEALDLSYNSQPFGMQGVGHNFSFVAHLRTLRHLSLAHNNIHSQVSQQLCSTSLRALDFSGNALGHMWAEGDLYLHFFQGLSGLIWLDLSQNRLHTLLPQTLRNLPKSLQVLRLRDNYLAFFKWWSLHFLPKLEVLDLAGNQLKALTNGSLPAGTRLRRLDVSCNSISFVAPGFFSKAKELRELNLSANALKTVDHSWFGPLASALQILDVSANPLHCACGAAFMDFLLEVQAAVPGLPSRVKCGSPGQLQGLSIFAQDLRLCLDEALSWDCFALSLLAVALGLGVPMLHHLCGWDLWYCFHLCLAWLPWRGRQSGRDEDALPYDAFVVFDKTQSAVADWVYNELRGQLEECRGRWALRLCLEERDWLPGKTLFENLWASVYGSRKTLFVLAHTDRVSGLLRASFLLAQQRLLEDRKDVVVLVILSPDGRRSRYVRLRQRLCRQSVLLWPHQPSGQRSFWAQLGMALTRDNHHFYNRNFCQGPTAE
In short: as §1

| Compound | IC50 (human TLR7) [µM] | IC50 (human TLR8) [µM] | IC50 (human TLR9) [µM] |
| --- | --- | --- | --- |
| CNC(=O)c1cn2cc(-c3[nH]c4ccc(C5CCNCC5)cc4c3C(C)C)cc(C)c2n1 [Example 264, 6-(3-isopropyl-5-(piperidin-4-yl)-1H-indol-2-yl)-N,8-dimethylimidazo[1,2-a]pyridine-2-carboxamide] | < 0.1 | < 0.1 | 0.1 to 1 |
| CNC(=O)CN1CCC(c2ccc3[nH]c(-c4cc(C)c5nc(C)c(C)n5c4)c(C(C)C)c3c2)CC1 [Example 429, 2-(4-(3-isopropyl-2-(2,3,8-trimethylimidazo[1,2-a]pyridin-6-yl)-1H-indol-5-yl)piperidin-1-yl)-N-methylacetamide] | < 0.1 | 0.1 to 1 | 0.1 to 1 |
| Cc1c(-c2ccnc3[nH]cnc23)[nH]c2ccc(C3CCNCC3)cc12 [Example 60, 7-(3-methyl-5-(piperidin-4-yl)-1H-indol-2-yl)-3H-imidazo[4,5-b]pyridine] | < 0.1 | 0.1 to 1 | 0.1 to 1 |
| Cc1ccc(-c2[nH]c3ccc(C4CCNCC4)cc3c2C(C)C)c2ncnn12 [Example 152, 8-(3-isopropyl-5-(piperidin-4-yl)-1H-indol-2-yl)-5-methyl-[1,2,4]triazolo[1,5-a]pyridine] | < 0.1 | < 0.1 | 1 to 50 |
| CC(C)c1c(-c2ccc3nccn3c2)[nH]c2ccc(C3CCN(CC(=O)N(C)C)CC3)cc12 [Example 444, 2-(4-(2-(imidazo[1,2-a]pyridin-6-yl)-3-isopropyl-1H-indol-5-yl)piperidin-1-yl)-N,N-dimethylacetamide] | < 0.1 | < 0.1 | 0.1 to 1 |
| CNCC(=O)N1CCC(c2ccc3[nH]c(-c4cn5cc(C)nc5cc4C)c(C(C)C)c3c2)CC1 [Example 510, 1-(4-(2-(2,7-dimethylimidazo[1,2-a]pyridin-6-yl)-3-isopropyl-1H-indol-5-yl)piperidin-1-yl)-2-(methylamino)ethan-1-one] | < 0.1 | 1 to 50 | 0.1 to 1 |
| CC(C)c1c(-c2cc(F)c3nccn3c2)[nH]c2ccc(C3CCN(C(=O)CN(C)C)CC3)cc12 [Example 544, 2-(dimethylamino)-1-(4-(2-(8-fluoroimidazo[1,2-a]pyridin-6-yl)-3-isopropyl-1H-indol-5-yl)piperidin-1-yl)ethan-1-one] | < 0.1 | < 0.1 | 1 to 50 |
| CNC(=O)CN1CCC(c2ccc3[nH]c(-c4cc(C)c5oc(=O)[nH]c5c4)c(C(C)C)c3c2)CC1 [Example 337, 2-(4-(3-isopropyl-2-(7-methyl-2-oxo-2,3-dihydrobenzo[d]oxazol-5-yl)-1H-indol-5-yl)piperidin-1-yl)-N-methylacetamide] | 0.1 to 1 | 0.1 to 1 | 1 to 50 |

The next lines start with the values.

| IC50 (human TLR7) [µM] | IC50 (human TLR8) [µM] | IC50 (human TLR9) [µM] | Compound |
| --- | --- | --- | --- |
| 0.1 to 1 | < 0.1 | 1 to 50 | CCc1c(-c2ccnc3[nH]ncc23)[nH]c2ccc(C3CCN(Cc4cc(C)n[nH]4)CC3)cc12 [Example 900, 4-(3-ethyl-5-(1-((3-methyl-1H-pyrazol-5-yl)methyl)piperidin-4-yl)-1H-indol-2-yl)-1H-pyrazolo[3,4-b]pyridine] |
| < 0.1 | < 0.1 | 0.1 to 1 | CC(C)c1c(-c2ccnc3[nH]ncc23)[nH]c2ccc(C3CCN(Cc4c[nH]cn4)CC3)cc12 [Example 870, 4-(5-(1-((1H-imidazol-4-yl)methyl)piperidin-4-yl)-3-isopropyl-1H-indol-2-yl)-1H-pyrazolo[3,4-b]pyridine] |
| < 0.1 | < 0.1 | 0.1 to 1 | CCN(CC)CCN1CCC(c2ccc3[nH]c(-c4ccnc5[nH]ncc45)c(C(C)C)c3c2)CC1 [Example 661, N,N-diethyl-2-(4-(3-isopropyl-2-(1H-pyrazolo[3,4-b]pyridin-4-yl)-1H-indol-5-yl)piperidin-1-yl)ethan-1-amine] |
| < 0.1 | 0.1 to 1 | 0.1 to 1 | CC(C)c1c(-c2ccc3nccn3c2)[nH]c2ccc(C3CCN(C(=O)[C@@H]4CCCNC4)CC3)cc12 [Example 639, (R)-(4-(2-(imidazo[1,2-a]pyridin-6-yl)-3-isopropyl-1H-indol-5-yl)piperidin-1-yl)(piperidin-3-yl)methanone] |
